In the NIST ThermoML archive (doi:10.1016/j.jct.2013.03.012):

Conditions: for mass density: 101.33 kPa, Liquid, Levitation methods

[Ti] [titanium]
Conditions	mass density [kg/m3]
1350 K	4235
1400 K	4223
1450 K	4211
1500 K	4200
1550 K	4188
1600 K	4176
1650 K	4164
1668 K	4160
1700 K	4152

Conditions	Normal melting temperature [°C]
Crystal, Heating curve in electrostatic levitation apparatus	1668.1
